Measurements published in US7652172B2, “Expeditious synthesis of DPD” (The Trustees of Princeton University, priority 2004, dated 2010).

How the values were obtained:
[1] = system: V. harveyi strain MM32 (luxN− luxS−); experiment: V. harveyi autoinducer bioassay (light emission); format: cell-based; conditions: for activity compared with enzymatically prepared DPD in the V. harveyi bioassay: equal concentration, 0.5 M potassium phosphate buffer, pH 7.3
Protocol: (§1) V. harveyi strain MM32 (luxN^− luxS^−) was grown overnight and subsequently diluted 5.000-fold in AB growth medium. This bioassay was performed as developed by the method of Schauder et. al. (2001). To 90 μL of diluted cells ,10 μL of various compounds were added, and the resulting cultures were further incubated in a 96-well microtiter dish at 30° C. for approximately 6 h. The concentration of crude DPD was calculated by measuring the amount of homocysteine released in an Ellman's test. Light emission was measured using a Wallac model 1450 microbeta Plus scintillation counter.
A. Comparative bioactivity of enzymatically-produced DPD, synthetic DPD and synthetic ent-DPD. Each of these three compounds and a blank were assessed in the above bioassay at equal concentrations. The bio assays were conducted with a dilution of 0.53 mM enzymatically-produced DPD, a dilution of 5.0 mM synthetic DPD or a dilution of 5.0 mM ent-DPD.

[2] = system: V. harveyi strain MM32 (luxN− luxS−); experiment: Effects of low pH on DPD bioactivity (V. harveyi bioassay after acid treatment); format: cell-based
Protocol: as §1
B. Effects of low pH on enzmmatically-produced DPD bioactivity. Enzymatically produced DPD (0.53 mM stock concentration) was mixed with sulfuric or hydrochloric acid at a ratio of 1 μL H2SO4 or 5 μL HCl to 250 μL DPD, resulting in solutions with a pH of 1.5 (with H2SO4) or 2 (with HCl). At times indicated, 1 M Tris pH 8.5 was added to restore the pH to neutral and bioactivity was determined. […] Similar results were obtained after exposure to H2SO4 (not shown).
C. Effects of low pH on synthetic DPD bioactivity. Synthetically-produced DPD (100 mM stock concentration) was mixed with H2SO4 at a ratio of 1 μL H2SO4 to 250 μL DPD, resulting in solutions with a pH of 1.3. After 16 h, 1 M Tris pH 8.5 was added at a ratio of 5 μL buffer to 20 uL DPD solution to restore the pH to 7.5.

[3] = Stability of DPD in aqueous solution monitored by 1H NMR; format: physicochemical
Protocol: Synthetically-produced DPD was stable under acidic conditions; a 30 mM sample of the molecule was monitored for decomposition via ^1H NMR for 5 h at 20° C. and pH 1.5. […] The purity of the synthetic DPD was further established by reaction with o-phenylenediamine to produce (S)-1-(3-methylquioxalin-2-yl)-ethane-1,2-diol in >98% purity.
To a suspension of 11 (9.6 mg, […]) in D2O) (1.5 mL) was added conc. D2SO4 (1.5 μL, final pD1.5). The reaction was allowed to continue for 5 h and was monitored by ^1H NMR. A ^1H-^1H DQCOSY spectrum was recorded at the 5-h time point to help establish the identity of each ^1H signal. […] The extra signals in the region form 1.35-1.45 ppm and 3.4-4.6 ppm are most likely due to a small amount of 1 that is not hydrated at C3. This hypothesis is supported by the complete disappearance of these peaks upon addition of 1,2-phenylenediamine (see Example 13)

[4] = 11B NMR DPD-borate binding study; format: physicochemical; conditions: 100 μM DPD in 400 μM B(OH)3, pH 7.5
Protocol: To explore the binding of DPD with borate under conditions that more closely resemble those in the natural habitat of V. harveyi and to correlate this study with previous work using DPD produced in vivo and released from the V. harveyi receptor protein, LuxP, the ^11B NMR spectrum of a 100 μM DPD solution in 400 μM B(OH)3 (Dickson et al. 1990) at pH 7.5 was recorded. […] Based on the ratio of integrals for the B(OH)3 peak and the DPD:borate peak, the concentration of DPD:borate complex was calculated to be ca 10 μM. consistent with ca 10% DPD bound at this dilution. We were unable to observe conclusively the presence of complexes with a 2:1 DPD:borate stoichiometry due to sensitivity limitations of the ^11B NMR experiment, although a peak with a S/N of 2 was recorded at δ 9.8 ppm.
To explore further the ability of DPD to complexborate at more physiologically relevant concentrations, a mixture of 10 μL of 40 mM B(OH)3, […] of 10 mM DPD, 100 μL of 1 M potassium phosphate buffer (pH 7), 200 μL of sat. NaHCO3 and 680 μL of D2O was produced to generate a 100 μM DPD solution in 400 μM B(OH)3, at pH 7.5. This solution was then analyzed by ^11B NMR to determine binding, as discussed in the Detailed Description of the Invention.

cell growth = experiment: Cell growth inhibition by deprotection by-product; format: cell-based; conditions: concentrations under 1 M

Compound: CC(=O)C(=O)C(O)CO (stereo not shown) [DPD, 4,5-dihydroxypentane-2,3-dione]
- activity in the V. harveyi autoinducer-bioassay ([1]; deprotection solution with excess borate at pH 7.8, without further purification): active
- activity compared with enzymatically prepared DPD in the V. harveyi bioassay [1]: equal
- activity compared with enzymatically prepared DPD in the V. harveyi bioassay ([1]; listed as synthetic DPD): equal in activity
- change in bioactivity after storage under acidic conditions ([2]; pH 1.5-2, dilute aqueous solution, 16 h at 20° C., DPD at least 30 mM and up to 100 mM): no significant decrease in bioactivity
- effect of acid treatment on autoinducer activity ([2]; synthetic, 100 mM, pH 1.3, 16 h, 20° C., listed as Synthetically-produced DPD): no loss in activity
- effect of acid treatment on autoinducer activity ([2]; synthetic, 100 mM, pH 1.3, 16 h, 20° C., listed as synthetic DPD): did not change the auto inducer activity
- decomposition under acidic conditions by 1H NMR ([3]; 30 mM, 5 h at 20° C., pH 1.5): no decomposition products were observed
- stability at basic pH ([3]; pH>8, unless bound to borate): less stable
- DPD bound to borate [4]: ~10%
- concentration of DPD:borate complex ([4]; from ratio of 11B NMR integrals): ~10 µM

Compound: CC(=O)C(=O)[C@H](O)CO [Ent-DPD]
- activity relative to DPD (1) in the V. harveyi bioassay [1]: 1%

Compound: O=C1CCCCC1 [cyclohexanone]
- inhibition of cell growth (cell growth): does not inhibit cell growth

Compound: CC(=O)C(=O)C(O)CO (stereo not shown) [enzymatically-produced DPD, 4,5-dihydroxypentane-2,3-dione, reference compound]
- effect of acid treatment on autoinducer activity ([2]; enzymatically produced, 0.53 mM stock, pH 1.5 (H2SO4) or 2 (HCl), up to 16 h): did not affect the autoinducer activity
